Key:
Assay in all cases: relative viability (nuclei count vs DMSO), 5 days (fraction); higher = more cells survive
Erlotinib + Luminespib = compound: C#Cc1cccc(Nc2ncnc3cc(OCCOC)c(OCCOC)cc23)c1 [Erlotinib] + CCNC(=O)c1noc(-c2cc(C(C)C)c(O)cc2O)c1-c1ccc(CN2CCOCC2)cc1 [Luminespib] (partner 0.01 µM)
Summary of the method: (§1)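 Lung cancer cell lines were seeded in 1536-well plates and dosed by pin tool the next day, with either a single drug or a fixed anchor-drug dose combined with five library-drug doses (not always all listed) spaced in √10 steps. Five days later, one step fixed the cells and stained their nuclei (final 0.05% Triton X-100, 1% formaldehyde, 1 ug/ml Hoechst), and nuclei were counted on 4× images. Relative viability is the nuclei count in treated wells divided by the count in vehicle wells, and each value is the median of duplicate plates.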

AT9283 + Bortezomib = compound: O=C(Nc1c[nH]nc1-c1nc2ccc(CN3CCOCC3)cc2[nH]1)NC1CC1 [AT9283] + CC(C)C[C@H](NC(=O)[C@H](Cc1ccccc1)NC(=O)c1cnccn1)B(O)O [Bortezomib] (partner 0.002 µM)
Summary of the method: as §1

AT9283 + Palbociclib = compound: O=C(Nc1c[nH]nc1-c1nc2ccc(CN3CCOCC3)cc2[nH]1)NC1CC1 [AT9283] + CC(=O)c1c(C)c2cnc(Nc3ccc(N4CCNCC4)cn3)nc2n(C2CCCC2)c1=O [Palbociclib] (partner 0.5 µM)
Summary of the method: as §1

Erlotinib + Lapatinib = compound: C#Cc1cccc(Nc2ncnc3cc(OCCOC)c(OCCOC)cc23)c1 [Erlotinib] + CS(=O)(=O)CCNCc1ccc(-c2ccc3ncnc(Nc4ccc(OCc5cccc(F)c5)c(Cl)c4)c3c2)o1 [Lapatinib] (partner 2 µM)
Summary of the method: as §1

Erlotinib + OSI-027 = compound: C#Cc1cccc(Nc2ncnc3cc(OCCOC)c(OCCOC)cc23)c1 [Erlotinib] + COc1cccc2cc(-c3nc([C@H]4CC[C@H](C(=O)O)CC4)n4ncnc(N)c34)[nH]c12 [OSI-027] (partner 0.5 µM)
Summary of the method: as §1

Row | Cell Line | relative viability (Erlotinib + Luminespib; first compound 0.02 µM) | relative viability (Erlotinib + Luminespib; first compound 0.2 µM) | relative viability (Erlotinib + Luminespib; first compound 0.6325 µM) | relative viability (Erlotinib + Luminespib; first compound 2 µM) | relative viability (AT9283 + Bortezomib; first compound 0.003 µM) | relative viability (AT9283 + Bortezomib; first compound 0.03 µM) | relative viability (AT9283 + Bortezomib; first compound 0.09487 µM) | relative viability (AT9283 + Bortezomib; first compound 0.3 µM) | relative viability (AT9283 + Palbociclib; first compound 0.003 µM) | relative viability (AT9283 + Palbociclib; first compound 0.03 µM) | relative viability (AT9283 + Palbociclib; first compound 0.09487 µM) | relative viability (AT9283 + Palbociclib; first compound 0.3 µM) | relative viability (Erlotinib + Lapatinib; first compound 0.02 µM) | relative viability (Erlotinib + Lapatinib; first compound 0.2 µM) | relative viability (Erlotinib + Lapatinib; first compound 2 µM) | relative viability (Erlotinib + OSI-027; first compound 0.02 µM) | relative viability (Erlotinib + OSI-027; first compound 0.2 µM) | relative viability (Erlotinib + OSI-027; first compound 0.6325 µM) | relative viability (Erlotinib + OSI-027; first compound 2 µM) | relative viability (Erlotinib + Lapatinib; first compound 0.6325 µM)
1 | NCI-H1915 | 0.819 | 0.777 | 0.908 | 0.725 | 0.769 | 0.952 | 0.887 | 0.341 | 0.545 | 0.51 | 0.254 | 0.153 | 1.01 | 0.987 | 0.992 | 0.651 | 0.713 | 0.679 | 0.55 | 
2 | LU99A | 0.27 | 0.257 | 0.231 | 0.223 | 1.04 | 0.463 | 0.162 | 0.229 | 0.358 | 0.226 | 0.14 | 0.139 | 1.1 | 0.999 | 0.768 | 0.295 | 0.303 | 0.284 | 0.259 | 1.05
3 | RERF-LC-KJ | 1.32 | 0.993 | 1.23 |  | 1.02 | 0.793 | 0.526 | 0.296 | 1.17 | 0.77 | 0.475 | 0.302 | 0.857 | 0.864 | 0.734 | 0.528 | 0.417 | 0.394 | 0.337 | 0.936
4 | NCI-H1755 | 0.412 | 0.432 | 0.536 | 0.413 | 0.983 | 0.91 | 0.498 | 0.529 | 0.434 | 0.463 | 0.469 | 0.499 |  | 1.06 | 1.02 | 0.757 | 0.776 | 0.786 | 0.619 | 1.09
5 | NCI-H1734 | 0.202 | 0.212 | 0.194 | 0.197 | 0.904 | 0.349 | 0.296 | 0.223 | 0.336 | 0.281 | 0.227 | 0.233 | 1.15 | 1.02 | 1 | 0.621 | 0.586 | 0.608 | 0.504 | 1.3
6 | NCI-H661 | 0.903 | 0.933 | 0.882 | 0.736 | 0.779 | 0.531 | 0.338 | 0.346 | 0.44 | 0.368 | 0.329 | 0.368 | 0.493 | 0.41 | 0.473 | 0.748 | 0.707 | 0.655 | 0.443 | 
7 | NCI-H2009 | 1.04 | 1.03 | 1.09 | 0.944 | 1.01 | 0.639 | 0.363 | 0.233 | 0.235 | 0.174 | 0.0777 | 0.032 | 0.971 | 1.03 | 0.889 | 0.759 | 0.653 | 0.65 | 0.414 | 1.07
8 | LC-2-ad | 1.13 | 0.976 | 1.17 | 0.745 | 1.08 | 0.509 | 0.233 | 0.108 | 0.458 | 0.415 | 0.29 | 0.229 | 1.03 | 0.896 | 0.861 |  | 0.837 | 0.725 | 0.475 | 1.05
9 | NCI-H2085 | 0.412 | 0.352 | 0.308 | 0.339 | 1.03 | 0.937 | 0.984 | 0.485 | 0.498 | 0.473 | 0.413 | 0.319 | 0.775 | 0.74 |  | 0.787 | 0.448 | 0.349 | 0.245 | 0.845
10 | NCI-H650 | 0.822 | 0.783 | 0.679 | 0.794 | 0.652 | 0.775 | 0.561 | 0.14 | 0.314 | 0.334 | 0.209 | 0.122 | 0.754 | 1.08 | 0.744 | 0.506 | 0.594 | 0.515 | 0.405 | 1.14
11 | EMC-BAC-2 | 1.12 | 1.06 | 1.19 | 1.03 | 1.04 | 0.792 | 0.216 | 0.204 | 0.471 | 0.376 | 0.289 | 0.247 | 0.934 | 0.828 | 0.822 | 0.394 | 0.416 | 0.353 | 0.302 | 
12 | NCI-H322M | 0.806 | 0.595 | 0.528 | 0.443 | 1.25 | 1.34 | 0.861 | 0.407 | 0.481 | 0.494 | 0.423 | 0.427 | 0.551 | 0.604 | 0.541 | 0.533 | 0.483 | 0.406 | 0.394 | 0.555
13 | NCI-H727 | 0.345 |  | 0.3 | 0.191 | 0.824 | 0.508 | 0.351 | 0.306 | 0.583 | 0.626 | 0.514 | 0.428 | 0.821 | 0.873 | 0.766 | 0.768 | 0.584 | 0.461 | 0.52 | 0.929
14 | NCI-H1650 | 0.218 | 0.188 | 0.206 | 0.21 | 0.206 | 0.222 | 0.231 | 0.215 | 0.38 | 0.404 | 0.242 | 0.237 | 0.705 | 0.728 | 0.828 | 0.533 | 0.515 | 0.472 | 0.33 | 0.899
15 | NCI-H838 | 0.321 | 0.313 | 0.427 | 0.303 | 0.777 | 0.228 | 0.184 | 0.231 | 0.257 | 0.227 | 0.154 | 0.138 | 1.21 | 0.759 | 0.853 | 0.421 | 0.474 | 0.359 | 0.319 | 1.26
16 | LXF-289 | 0.813 | 0.622 | 0.707 | 0.634 | 0.972 | 0.992 | 0.184 | 0.131 | 0.608 | 0.647 | 0.254 | 0.152 | 0.89 | 0.953 | 0.889 | 0.79 | 0.766 | 0.721 | 0.551 | 0.899
17 | SW 1573 | 0.327 | 0.217 | 0.214 | 0.183 | 1.04 | 0.304 | 0.279 | 0.236 | 0.333 | 0.158 | 0.173 | 0.121 | 1.3 | 1.05 | 1.17 | 0.651 | 0.503 | 0.597 | 0.44 | 
18 | 201T | 1.01 | 1.03 | 1.06 | 0.874 | 1.02 | 1.14 | 1.09 | 0.487 | 0.352 | 0.362 | 0.265 | 0.279 | 1.01 | 1.03 | 0.934 | 0.804 | 0.862 | 0.846 | 0.664 | 1.08
19 | COR-L 105 | 0.779 | 0.472 | 0.378 | 0.216 | 0.758 | 0.303 | 0.352 | 0.249 | 0.392 | 0.327 | 0.328 | 0.286 | 0.368 | 0.322 | 0.36 | 0.595 | 0.262 | 0.365 | 0.27 | 0.335
20 | LOU-NH91 | 0.412 | 0.297 | 0.364 | 0.31 | 0.436 | 0.447 | 0.438 | 0.389 | 0.552 | 0.515 | 0.418 | 0.439 | 0.735 | 0.723 | 0.734 | 0.506 | 0.47 | 0.473 | 0.43 | 0.786
21 | PC-3 [JPC-3] | 0.64 | 0.363 | 0.406 | 0.306 | 0.822 | 0.86 | 0.867 | 0.687 | 0.602 | 0.533 | 0.575 | 0.484 | 0.437 | 0.383 | 0.399 | 0.735 | 0.334 | 0.178 | 0.215 | 0.442
22 | NCI-H1666 | 0.969 | 0.941 | 1.01 | 0.713 | 0.806 | 0.442 | 0.297 | 0.298 | 0.619 | 0.691 | 0.524 | 0.534 | 0.714 | 0.552 | 0.699 | 0.83 | 0.741 | 0.624 | 0.565 | 0.698
23 | EPLC-272H | 0.176 | 0.233 | 0.326 | 0.196 | 0.786 | 0.831 | 0.802 | 0.122 | 0.306 | 0.355 | 0.276 | 0.241 | 0.923 | 1.1 | 0.763 | 0.342 | 0.304 | 0.26 | 0.196 | 1.24
24 | HCC-15 | 0.241 | 0.376 | 0.236 | 0.208 | 1.05 | 0.773 | 0.696 | 0.166 | 0.65 | 0.681 | 0.187 | 0.164 | 0.939 | 0.852 | 0.785 | 0.702 | 0.736 | 0.676 | 0.588 | 0.93
25 | NCI-H1792 | 0.42 | 0.319 | 0.49 | 0.281 | 0.918 | 0.985 | 0.961 | 0.701 | 0.607 | 0.661 | 0.623 | 0.399 |  | 0.877 | 0.842 | 0.728 | 0.561 | 0.586 | 0.362 | 1.18

Source: the supplement of paper PMC10307832
